What was measured:
[1] = target: T1, branched-chain aminotransferase (MtIlvE) (Mycobacterium tuberculosis, UniProt P9WQ75); experiment: biochemical; assay type: binding
[2] = target: T1, branched-chain aminotransferase (MtIlvE); experiment: […]; assay type: biochemical; details: read-out: Ki

T1 sequence (P9WQ75 whole entry): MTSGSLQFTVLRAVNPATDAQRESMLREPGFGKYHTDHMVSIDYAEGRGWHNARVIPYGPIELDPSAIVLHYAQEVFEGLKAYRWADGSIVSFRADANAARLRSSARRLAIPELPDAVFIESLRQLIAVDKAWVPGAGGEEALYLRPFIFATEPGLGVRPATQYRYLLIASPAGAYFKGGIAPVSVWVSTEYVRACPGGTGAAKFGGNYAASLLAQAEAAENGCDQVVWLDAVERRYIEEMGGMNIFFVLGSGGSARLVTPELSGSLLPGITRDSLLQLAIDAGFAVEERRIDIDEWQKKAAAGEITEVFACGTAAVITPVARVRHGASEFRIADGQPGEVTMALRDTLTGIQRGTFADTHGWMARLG

Structure (SMILES) | kinact/KI [1] | KI (inactivation) [2]
N[C@@H]1CON=C1O [DCS, D-Cycloserine] | 0.12 M⁻¹ s⁻¹ | 
N[C@H]1CONC1=O [LCS, L-cycloserine] |  | 88 µM
